Common to all, as to type: biochemical
One assay addresses T1, JAK3 (Homo sapiens, UniProt P52333).
T1 sequence (P52333 1-1124): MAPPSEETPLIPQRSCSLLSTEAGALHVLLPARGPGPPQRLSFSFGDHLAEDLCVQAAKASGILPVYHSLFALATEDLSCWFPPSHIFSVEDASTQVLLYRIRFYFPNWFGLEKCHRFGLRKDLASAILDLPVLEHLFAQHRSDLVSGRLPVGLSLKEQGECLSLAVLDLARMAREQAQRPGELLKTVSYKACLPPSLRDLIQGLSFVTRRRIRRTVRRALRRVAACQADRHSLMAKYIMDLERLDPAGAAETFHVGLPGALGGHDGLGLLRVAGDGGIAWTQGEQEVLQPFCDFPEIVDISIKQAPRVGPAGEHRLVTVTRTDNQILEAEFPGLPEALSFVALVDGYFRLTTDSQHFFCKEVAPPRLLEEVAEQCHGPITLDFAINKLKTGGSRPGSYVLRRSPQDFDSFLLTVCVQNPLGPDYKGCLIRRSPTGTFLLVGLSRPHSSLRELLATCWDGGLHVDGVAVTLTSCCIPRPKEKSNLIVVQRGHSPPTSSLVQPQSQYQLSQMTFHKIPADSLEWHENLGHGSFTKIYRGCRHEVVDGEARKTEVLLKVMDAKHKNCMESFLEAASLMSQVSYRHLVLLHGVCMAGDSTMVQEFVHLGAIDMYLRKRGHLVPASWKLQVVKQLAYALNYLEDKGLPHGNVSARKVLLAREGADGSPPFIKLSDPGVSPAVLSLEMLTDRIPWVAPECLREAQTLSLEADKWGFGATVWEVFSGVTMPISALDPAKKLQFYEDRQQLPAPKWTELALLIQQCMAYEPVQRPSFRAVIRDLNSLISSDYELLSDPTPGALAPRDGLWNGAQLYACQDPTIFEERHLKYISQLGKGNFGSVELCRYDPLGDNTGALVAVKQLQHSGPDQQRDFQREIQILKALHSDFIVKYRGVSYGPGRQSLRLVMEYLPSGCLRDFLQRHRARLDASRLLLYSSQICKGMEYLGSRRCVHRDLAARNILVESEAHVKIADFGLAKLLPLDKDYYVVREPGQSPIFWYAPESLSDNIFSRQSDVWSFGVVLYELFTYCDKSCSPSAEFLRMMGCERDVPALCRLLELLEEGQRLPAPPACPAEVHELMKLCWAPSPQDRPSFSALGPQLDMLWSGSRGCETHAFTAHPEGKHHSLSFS
Kind of assay: kinase inhibition assay (ADP-Glo). (In general: ADP-Glo turns the ADP formed in a reaction into a luminescent signal.)

The target of assay [1] is T2, EGFR-TK (epidermal growth factor receptor tyrosine kinase) (Homo sapiens, UniProt P00533).
T2 construct: tyrosine kinase (TK) domain
T2 sequence (P00533 712-979 limits assumed): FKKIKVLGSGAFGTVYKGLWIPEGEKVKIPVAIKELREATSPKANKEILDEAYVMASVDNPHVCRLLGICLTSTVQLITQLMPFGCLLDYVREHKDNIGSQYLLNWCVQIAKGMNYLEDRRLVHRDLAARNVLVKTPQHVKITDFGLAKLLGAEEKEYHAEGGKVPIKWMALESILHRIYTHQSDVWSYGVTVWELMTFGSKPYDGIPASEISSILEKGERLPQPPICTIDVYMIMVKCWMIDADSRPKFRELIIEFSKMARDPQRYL
The assay can be described thus: ADP-Glo kinase assay.

The target of another assay is T3, HER2 (Homo sapiens, UniProt P04626).
T3 construct: gene ERBB2
T3 sequence (P04626 23-1255): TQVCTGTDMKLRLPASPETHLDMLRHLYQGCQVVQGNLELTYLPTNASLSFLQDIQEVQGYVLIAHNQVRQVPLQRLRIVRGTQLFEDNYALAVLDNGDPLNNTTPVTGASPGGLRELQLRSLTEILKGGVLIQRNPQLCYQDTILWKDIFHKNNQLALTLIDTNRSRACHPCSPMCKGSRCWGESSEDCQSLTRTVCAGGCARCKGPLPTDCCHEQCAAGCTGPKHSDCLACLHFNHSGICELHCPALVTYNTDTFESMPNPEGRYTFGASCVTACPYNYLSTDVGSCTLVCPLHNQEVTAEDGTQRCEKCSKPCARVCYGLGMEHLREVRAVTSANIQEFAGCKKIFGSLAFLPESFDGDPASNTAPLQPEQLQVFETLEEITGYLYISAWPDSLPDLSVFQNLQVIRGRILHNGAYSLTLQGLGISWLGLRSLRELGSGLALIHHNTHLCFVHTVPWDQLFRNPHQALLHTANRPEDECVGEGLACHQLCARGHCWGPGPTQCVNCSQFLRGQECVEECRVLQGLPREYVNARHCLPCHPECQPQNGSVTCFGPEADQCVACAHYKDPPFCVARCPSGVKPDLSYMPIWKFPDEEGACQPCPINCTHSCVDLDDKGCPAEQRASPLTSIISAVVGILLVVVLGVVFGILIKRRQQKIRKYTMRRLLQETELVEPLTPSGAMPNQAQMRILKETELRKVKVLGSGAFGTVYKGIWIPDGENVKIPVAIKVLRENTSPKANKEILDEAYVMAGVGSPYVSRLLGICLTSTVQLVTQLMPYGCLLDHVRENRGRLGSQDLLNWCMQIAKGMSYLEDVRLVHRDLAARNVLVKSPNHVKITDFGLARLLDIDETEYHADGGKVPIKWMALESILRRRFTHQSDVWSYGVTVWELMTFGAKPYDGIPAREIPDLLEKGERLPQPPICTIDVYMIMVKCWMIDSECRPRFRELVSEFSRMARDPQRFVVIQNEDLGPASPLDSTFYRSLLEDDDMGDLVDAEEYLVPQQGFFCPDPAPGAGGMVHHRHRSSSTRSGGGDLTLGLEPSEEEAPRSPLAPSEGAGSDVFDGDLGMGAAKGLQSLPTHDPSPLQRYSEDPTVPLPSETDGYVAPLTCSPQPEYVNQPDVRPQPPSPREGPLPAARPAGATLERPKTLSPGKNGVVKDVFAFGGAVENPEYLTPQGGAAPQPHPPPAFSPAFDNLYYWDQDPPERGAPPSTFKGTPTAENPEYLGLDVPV
Kind of assay: kinase inhibition assay (ADP-Glo).

Broadly, the IC50 is the concentration that gives 50% inhibition. Higher therefore signals lower potency. Turning to `COc1cc(/C=C/S(=O)(=O)c2ccccc2)cc(OC)c1OC` [VF16], the values for the IC50 (at JAK3; in assay [1]; at HER2) were 158 ± 4.75 nM, 7.85 ± 0.88 nM and 312 ± 0.28 nM, respectively.
